How the values were obtained:
[1] = system: human OS cell lines (U2OS, G292, MG-63, HT-161, HOS, SAOS-2, and SJSA); test: MTT assay, dose-response in human OS cell lines; assay type: cell-based
Procedure: 7 human OS cell lines (U2OS, G292, MG-63, HT-161, HOS, SAOS-2, and SJSA) were used in the study. Each cell line except HT-161 was obtained from the American Type Culture Collection (ATCC, Rockville, Md.). HT-161 was obtained from Dr. Emil Bogenmann (13). All cell lines were tested and authenticated prior to use according to cell line verification test recommendations by ATCC. OS cell lines were maintained in DMEM medium (Mediatech Inc., Herndon, Va.) supplemented with 10% fetal bovine serum (FBS; Atlanta Biological, Lawrenceville, Ga.) in a humidified incubator at 37° C. supplied with 5% CO2. Only the cells in exponential growth phase were used in the study.
Cell growth and survival were measured by 3-(4,5-dimethylthiazol-2-yl)-2,5-diphenyltetrazolium bromide (MTT) assay. […] After 48 hours of incubation, 10 μl of 5 mg/ml MTT solution (Sigma-Aldrich, St. Louis, Mo.) was added to each well and incubated further for 2 hours. […] For pulse-exposure experiments, MG-63 and SAOS-2 cells were seeded in 96-well plates and exposed to CuB at their ED50. After 2, 9, and 20 hours of exposure, cells were washed twice with PBS and incubated further in CuB-free media. Cell growth was checked by MTT assay at 24, 48, and 72 hours.

[2] = system: SAOS-2 cells; test: Cell cycle analysis (PI, FACS), SAOS-2; assay type: cell-based, human
Procedure: Cells were harvested and fixed with 70% ethanol at regular time intervals. Fixed cells were stained with propidium iodide (PI) for flow cytometry analysis using BD FACScan (BD Biosciences, San Jose, Calif.). Distribution of cell cycle was analyzed by ModFit LT V2.0 software (Verity Software House, Topsham, Me.). […] After 24, 48, and 72 hours of exposure, cells were harvested and stained with PI and fluorescein isothiocyanate (FITC) using Annexin V-FITC apoptosis detection kit (BD Biosciences) according to the manufacturer's protocol. Cells were subjected to flow cytometry analysis within one hour of staining.

[3] = system: MG-63 cells; test: Morphological changes (crystal violet staining), MG-63; assay type: cell-based, human
Procedure: FIG. 2. (A) Graphical representation of the effect of CuB on MG-63 and SAOS-2 cells. Cells were exposed to CuB at their ED50 (70 nM for MG-63 and 50 nM for SAOS-2 cells). Time-dependent antiproliferative activity of CuB on MG-63 and SAOS-2 cells measured by pulse-exposure experiments. Cells were exposed to CuB for 2, 9, or 20 hours, washed extensively, and cultured in the absence of CuB for an additional 24, 48, and 72 hours. Cell growth was measured by MTT assay. Measurements were repeated in triplicates. Data represent mean±SD. Asterisks (**) represent p<0.001 vs DMSO control by t-test. (B) Morphological changes of MG-63 and SAOS-2 cells after exposure to cucurbitacin B. Cells with normal morphology (top) were compared to rounded cells (middle) and multinucleated cells (bottom). […] Representative cells are shown. 400×; scale bar=50 μm. (C) Graphical representation of G2/M cell cycle arrest after 20 hours of exposure to cucurbitacin B. Cells were stained with propidium iodide (PI) and analyzed by FACS. (D) Graphical representation of apoptosis after 72 hours of exposure to cucurbitacin B. Cells were stained with PI and Annexin V-FITC, and analyzed by FACS.

[4] = system: phospho-c-Jun and c-Fos; test: Western blotting, phospho-c-Jun and c-Fos; assay type: cell-based, human; details: MG-63 and SAOS-2 cells
Procedure: Changes in protein level by CuB were checked by Western blotting. […] After 2, 9, and 20 hours of exposure, cells were harvested and immediately lysed with RIPA buffer (Millipore—Upstate, Temecula, Calif.) supplemented with protease inhibitor cocktail (Roche, San Francisco, Calif.), 0.5 mM PMSF (Roche), and 50 mM NaF (Sigma). After 20 minutes of incubation on ice, protein concentrations were measured by Bradford assay with Bio Rad protein assay solution (Bio-Rad, Hercules, Calif.) and samples were adjusted to the same protein concentration. Samples were mixed with 2× Laemmli sample buffer (Bio-Rad) with 5% β-mercaptoethanol (Sigma) and incubated at 95° C. for 10 min to denature the protein. After brief incubation on ice, proteins were separated by SDS-PAGE, transferred to nitrocellulose membrane (Sigma), and blotted with antibodies from either Cell Signaling Technology (Danvers, Mass.) or Santa Cruz Biotechnology (Santa Cruz, Calif.). Target proteins were visualized by Supersignal West Dura Substrate (Thermo-Pierce, Rockford, Ill.). GAPDH protein was used as a loading control.

Structure (SMILES): CC(=O)OC(C)(C)/C=C/C(=O)[C@](C)(O)[C@H]1[C@H](O)C[C@@]2(C)[C@@H]3CC=C4[C@H](C[C@H](O)C(=O)C4(C)C)[C@]3(C)C(=O)C[C@]12C [CuB, cucurbitacin B]
- cytotoxic activity in human OS cells [1]: dose- and time-dependent
- increase of G2/M phase ([2]; 20 hours of exposure): around 3 fold
- G2/M phase ([2]; 20 hours of exposure at ED50 (control 15%)): 42%
- morphological changes ([3]; 2 hour exposure): Rapid loss of pseudopodia and rounding
- morphological changes ([3]; 9 hour-exposure): multinuclearity which was not reversed by CuB removal
- phospho-c-Jun level and c-Fos expression [4]: Decreased level of phospho-c-Jun and subsequent decrease in c-Fos expression

From US20120238532A1, “TREATMENT OF HUMAN OSTEOSARCOMA” (CEDARS-SINAI MEDICAL CENTER, priority 2009, published 2012)
